Measurements published in patent publication US20240336608A1, “IL4I1 INHIBITORS AND METHODS OF USE” (Merck Sharp & Dohme LLC, priority 2023, published 2024).

Target: T1, recombinant IL4I1 (Homo sapiens, UniProt Q96RQ9)
T1 construct: purchased R&D Systems 5684-AO-020
T1 sequence (Q96RQ9 22-567): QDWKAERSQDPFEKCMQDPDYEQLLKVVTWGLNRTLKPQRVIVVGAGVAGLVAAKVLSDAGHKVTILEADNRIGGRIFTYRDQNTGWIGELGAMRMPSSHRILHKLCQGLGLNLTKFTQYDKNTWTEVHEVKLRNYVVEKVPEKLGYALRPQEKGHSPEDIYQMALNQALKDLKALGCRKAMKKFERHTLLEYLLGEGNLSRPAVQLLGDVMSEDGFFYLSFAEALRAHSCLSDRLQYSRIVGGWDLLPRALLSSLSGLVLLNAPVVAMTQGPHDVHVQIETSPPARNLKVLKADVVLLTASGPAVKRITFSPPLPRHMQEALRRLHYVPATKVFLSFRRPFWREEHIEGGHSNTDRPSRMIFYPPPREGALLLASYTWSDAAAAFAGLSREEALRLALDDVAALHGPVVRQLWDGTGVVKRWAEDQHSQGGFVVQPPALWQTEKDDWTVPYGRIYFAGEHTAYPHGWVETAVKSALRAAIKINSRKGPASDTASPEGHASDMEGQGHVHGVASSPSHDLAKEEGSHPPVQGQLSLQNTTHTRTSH
Assay: IL4I1 Enzymatic Assay (Amplex Red/HRP coupled detection of H2O2, fluorescence)
Assay type: biochemical
Settings: 1 nM recombinant IL4I1; four-hour pre-incubation with compound; 1 mM each Phe, Tyr, Trp; ten-point titration
Summary of the method: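 H2O2 output was coupled to resorufin fluorescence (ex 544/em 590) via 0.05 mM Amplex Red and 1 U/mL HRP. Substrate: Phe, Tyr, Trp at 1 mM each; enzyme 1 nM, 4 h compound pre-incubation, 120 min reaction, pH 7.0 Hepes. EC50 by nonlinear four-parameter regression, 1:3 ten-point titration.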

EC50 [nM]	Structure (SMILES)
207	Cc1cc(C(=O)NCc2nnc(-c3ccccc3)s2)no1 [Example 23, 5-methyl-N-[(5-phenyl-1,3,4-thiadiazol-2-yl)methyl]isoxazole-3-carboxamide]
31	CC(n1cc(C(=O)NCc2nnc(-c3ccccc3)s2)nn1)C(F)(F)F (stereo not shown) [Example 203, N-((5-phenyl-1,3,4-thiadiazol-2-yl)methyl)-1-(1,1,1-trifluoropropan-2-yl)-1H-1,2,3-triazole-4-carboxamide]
182	O=C(NCc1nnc(-c2ccccc2)s1)c1cn(-c2ccccn2)nn1 [Example 310, N-((5-phenyl-1,3,4-thiadiazol-2-yl)methyl)-1-(pyridin-2-yl)-1H-1,2,3-triazole-4-carboxamide]
593	O=C(NCc1nnc(-c2ccccc2)s1)c1cn(C2(C(F)(F)F)CC2)nn1 [Example 153, N-((5-phenyl-1,3,4-thiadiazol-2-yl)methyl)-1-(1-(trifluoromethyl)cyclopropyl)-1H-1,2,3-triazole-4-carboxamide]
18	Cn1cc(C(=O)NCc2nnc(-c3ccccc3)s2)nn1 [Example 19, 1-methyl-N-[(5-phenyl-1,3,4-thiadiazol-2-yl)methyl]triazole-4-carboxamide]
303	CC(C)(O)c1cc(C(=O)NCc2cc(-c3ccccc3)on2)on1 [Example 248, 3-(2-hydroxypropan-2-yl)-N-((5-phenylisoxazol-3-yl)methyl)isoxazole-5-carboxamide]
446	Cc1nc(C(C)(C)O)ccc1-n1cc(C(=O)NCc2nnc(-c3ccccc3)s2)nn1 [Example 334, 1-(6-(2-hydroxypropan-2-yl)-2-methylpyridin-3-yl)-N-((5-phenyl-1,3,4-thiadiazol-2-yl)methyl)-1H-1,2,3-triazole-4-carboxamide]
8	Cc1ccc(-n2cc(C(=O)NCc3nnc(-c4ccccc4)s3)nn2)c(Br)n1 [Example 279, 1-(2-bromo-6-methylpyridin-3-yl)-N-((5-phenyl-1,3,4-thiadiazol-2-yl)methyl)-1H-1,2,3-triazole-4-carboxamide]
51	Cc1ccc(-c2cc(C(=O)NCc3nnc(-c4ccccc4)s3)no2)c(C)n1 [Example 228, 5-(2,6-dimethylpyridin-3-yl)-N-[(5-phenyl-1,3,4-thiadiazol-2-yl)methyl]-1,2-oxazole-3-carboxamide]
291	Cn1ccc(C(=O)NCc2nnc(-c3ccccc3)s2)n1 [Example 14, 1-methyl-N-[(5-phenyl-1,3,4-thiadiazol-2-yl)methyl]pyrazole-3-carboxamide]
209	CC(C(N)=O)n1cc(C(=O)NCc2nnc(-c3ccccc3)s2)nn1 (single isomer, unassigned) [Example 318, 1-(1-amino-1-oxopropan-2-yl)-N-((5-phenyl-1,3,4-thiadiazol-2-yl)methyl)-1H-1,2,3-triazole-4-carboxamide]
12	O=C(NCc1cc(-c2ccccc2)no1)c1cn(CC(F)F)nn1 [Example 291, 1-(2,2-difluoroethyl)-N-((3-phenylisoxazol-5-yl)methyl)-1H-1,2,3-triazole-4-carboxamide]
27	O=C(NCc1nnc(-c2ccccc2)s1)c1scc2c1OCCO2 [Example 22, N-[(5-phenyl-1,3,4-thiadiazol-2-yl)methyl]-2,3-dihydrothieno[3,4-b][1,4]dioxine-5-carboxamide]
221	COCC[C@H](C)n1cc(C(=O)NCc2nnc(-c3ccccc3)s2)nn1 [Example 66, (S)-1-(4-methoxybutan-2-yl)-N-((5-phenyl-1,3,4-thiadiazol-2-yl)methyl)-1H-1,2,3-triazole-4-carboxamide]
90	Cc1ccc(C(=O)NCc2nnc(-c3ccccc3)s2)s1 [Example 12, 5-methyl-N-[(5-phenyl-1,3,4-thiadiazol-2-yl)methyl]thiophene-2-carboxamide]
196	C[C@@H](O)[C@H](CO)n1cc(C(=O)NCc2nnc(-c3ccccc3)s2)nn1 [Example 187, 1-((2S,3R)-1,3-dihydroxybutan-2-yl)-N-((5-phenyl-1,3,4-thiadiazol-2-yl)methyl)-1H-1,2,3-triazole-4-carboxamide]
8	COc1ccc(-n2cc(C(=O)NCc3nnc(-c4ccccc4)s3)nn2)c(C)n1 [Example 229, 1-(6-methoxy-2-methylpyridin-3-yl)-N-((5-phenyl-1,3,4-thiadiazol-2-yl)methyl)-1H-1,2,3-triazole-4-carboxamide]

EC50 [nM]	Structure (SMILES)
7	CC1CC1n1cc(C(=O)NCc2nnc(-c3ccccc3)s2)nn1 (single isomer, unassigned) [Example 132, Cis-1-(2-methylcyclopropyl)-N-((5-phenyl-1,3,4-thiadiazol-2-yl)methyl)-1H-1,2,3-triazole-4-carboxamide]
499	O=C(NCc1nnc(-c2ccccc2)s1)c1cn([C@@H]2C[C@@H](O)[C@@H](O)C2)nn1 [Example 190, 1-((1s,3R,4S)-3,4-dihydroxycyclopentyl)-N-((5-phenyl-1,3,4-thiadiazol-2-yl)methyl)-1H-1,2,3-triazole-4-carboxamide]
487	Cc1cc(C(=O)NCc2nnc(-c3ccccc3)s2)c(C)o1 [Example 36, 2,5-dimethyl-N-[(5-phenyl-1,3,4-thiadiazol-2-yl)methyl]furan-3-carboxamide]
165	Cc1ccc(-c2cc(C(=O)NCc3nnc(-c4ccccc4)s3)on2)c(C)n1 [Example 283, 3-(2,6-dimethylpyridin-3-yl)-N-((5-phenyl-1,3,4-thiadiazol-2-yl)methyl)isoxazole-5-carboxamide]
4	O=C(NCc1nnc(-c2ccccc2)s1)c1cn(CC(F)(F)F)nn1 [Example 60, N-((5-phenyl-1,3,4-thiadiazol-2-yl)methyl)-1-(2,2,2-trifluoroethyl)-1H-1,2,3-triazole-4-carboxamide]
58	Cc1ccc(-n2cc(C(=O)NCc3cc(-c4cccc(F)c4)no3)nn2)c(C)n1 [Example 223, 1-(2,6-dimethylpyridin-3-yl)-N-{[3-(3-fluorophenyl)-1,2-oxazol-5-yl]methyl}-1H-1,2,3-triazole-4-carboxamide]
145	Cc1ccc(-n2cc(C(=O)NCc3nnc(-c4ccccc4)s3)nn2)cn1 [Example 267, 1-(6-methylpyridin-3-yl)-N-((5-phenyl-1,3,4-thiadiazol-2-yl)methyl)-1H-1,2,3-triazole-4-carboxamide]
282	CCC(CC)Cn1cc(C(=O)NCc2nnc(-c3ccccc3)s2)nn1 [Example 82, 1-(2-ethylbutyl)-N-((5-phenyl-1,3,4-thiadiazol-2-yl)methyl)-1H-1,2,3-triazole-4-carboxamide]
13	CC(c1ccno1)n1cc(C(=O)NCc2nnc(-c3ccccc3)s2)nn1 (stereo not shown) [Example 155, 1-(1-(isoxazol-5-yl)ethyl)-N-((5-phenyl-1,3,4-thiadiazol-2-yl)methyl)-1H-1,2,3-triazole-4-carboxamide]
264	O=C1COC(Cn2cc(C(=O)NCc3nnc(-c4ccccc4)s3)nn2)CN1 (stereo not shown) [Example 192, 1-((5-oxomorpholin-2-yl)methyl)-N-((5-phenyl-1,3,4-thiadiazol-2-yl)methyl)-1H-1,2,3-triazole-4-carboxamide]
21	O=C(NCc1nnc(-c2ccccc2)s1)c1cn(Cc2ccncc2)nn1 [Example 99, N-((5-phenyl-1,3,4-thiadiazol-2-yl)methyl)-1-(pyridin-4-ylmethyl)-1H-1,2,3-triazole-4-carboxamide]
23	CC(NC(=O)c1cn(C2CC2)nn1)c1nnc(-c2ccccc2)s1 (single isomer, unassigned) [Example 245, 1-cyclopropyl-N-(1-(5-phenyl-1,3,4-thiadiazol-2-yl)ethyl)-1H-1,2,3-triazole-4-carboxamide]
7	O=C(NCc1nnc(-c2ccccc2)s1)c1cn(CCC(F)(F)F)nn1 [Example 62, N-((5-phenyl-1,3,4-thiadiazol-2-yl)methyl)-1-(3,3,3-trifluoropropyl)-1H-1,2,3-triazole-4-carboxamide]
15	O=C(NCc1nnc(-c2ccncc2)s1)c1cn(CC(F)(F)F)nn1 [Example 249, N-((5-(pyridin-4-yl)-1,3,4-thiadiazol-2-yl)methyl)-1-(2,2,2-trifluoroethyl)-1H-1,2,3-triazole-4-carboxamide]
16	COCCCn1cc(C(=O)NCc2nnc(-c3ccccc3)s2)nn1 [Example 96, 1-(3-methoxypropyl)-N-((5-phenyl-1,3,4-thiadiazol-2-yl)methyl)-1H-1,2,3-triazole-4-carboxamide]
267	CC1(n2cc(C(=O)NCc3nnc(-c4ccccc4)s3)nn2)CS(=O)(=O)C1 [Example 178, 1-(3-methyl-1,1-dioxidothietan-3-yl)-N-((5-phenyl-1,3,4-thiadiazol-2-yl)methyl)-1H-1,2,3-triazole-4-carboxamide]
58	Cc1ccc(-n2cc(C(=O)NCc3nnc(-c4ccccc4C)s3)nn2)c(C)n1 [Example 107, 1-(2,6-dimethylpyridin-3-yl)-N-((5-(o-tolyl)-1,3,4-thiadiazol-2-yl)methyl)-1H-1,2,3-triazole-4-carboxamide]
